# Measurements as given in PMC8919051, “Metabolome and Whole-Transcriptome Analyses Reveal the Molecular Mechanisms Underlying Hypoglycemic Nutrient Metabolites Biosynthesis in Cyclocarya paliurus Leaves During Different Harvest Stages” (Frontiers in Nutrition, 2022).
# Molecular target: α-amylase (EC 3.2.1.1)
# Assay: α-amylase activity kit, colorimetric at […] nm
# Assay type: biochemical
row,Compound,IC50 [µM]
1,O=C(/C=C/c1ccc(O)c(O)c1)O[C@@H]1C[C@@](O)(C(=O)O)C[C@@H](O)[C@@H]1O [neochlorogenic acid],230
2,COc1cc(C(=O)O)ccc1O [vanillic acid],330
